Data as given in patent US11642335B2, “Chemical synthesis of clopidogrel active metabolites and disulfide conjugate prodrugs” (Board of Regents, The University of Texas System, priority 2019, dated 2023).
Entries after “also recorded” stand apart in the source; their conditions may differ.

What was measured:
[1] = patients treated with CPG; cited from earlier work
P2Y12R = P2Y12R (Homo sapiens, UniProt Q9H244); details: biosynthesized H2, relative to H4; cited from earlier work
[2] = system: FeCl3 carotid artery injury-induced thrombosis; test: FeCl3 carotid artery injury-induced thrombosis mouse model (in vivo antiplatelet test); details: for occlusion time of thrombosis: tail vein administration of 1 mg/kg, compared to vehicle (negative control) and CPG (positive control), FIG. 14, 1 mg/kg
Description: Referring now to FIGS. 14-18, In vivo antiplatelet test of synthetic H3 and H4 in a FeCl3 carotid artery injury-induced thrombosis mouse model.

antiplatelet activity = details: cited from earlier work

P2Y12R, sequence (Q9H244 whole entry): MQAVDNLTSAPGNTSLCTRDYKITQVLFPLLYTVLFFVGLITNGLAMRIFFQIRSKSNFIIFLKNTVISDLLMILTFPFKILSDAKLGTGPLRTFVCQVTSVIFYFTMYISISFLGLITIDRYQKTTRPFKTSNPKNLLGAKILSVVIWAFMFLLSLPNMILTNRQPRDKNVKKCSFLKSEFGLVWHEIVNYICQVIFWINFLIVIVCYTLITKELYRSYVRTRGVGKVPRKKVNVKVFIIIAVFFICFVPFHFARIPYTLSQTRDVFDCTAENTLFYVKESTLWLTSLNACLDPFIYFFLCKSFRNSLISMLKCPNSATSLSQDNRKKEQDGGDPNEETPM

## COC(=O)[C@H](c1ccccc1Cl)N1CC[C@@H](S)/C(=C\C(=O)O)C1 [H2]
[1]
  detection as circulating metabolite in patients' plasma: not detected
P2Y12R
  potency against P2Y12R in vitro: similarly potent as H4

## COC(=O)[C@H](c1ccccc1Cl)N1CC[C@@H](S)/C(=C\C(=O)O)C1 [H3]
[1]
  detection as circulating metabolite in patients' plasma: detected as circulating metabolites
[2]
  occlusion time of thrombosis: ineffective

## COC(=O)[C@H](c1ccccc1Cl)N1CC[C@@H](S)/C(=C\C(=O)O)C1 [H4]
[1]
  detection as circulating metabolite in patients' plasma: detected as circulating metabolites
Antiplatelet activity
  activity in in vitro pharmacological studies (antiplatelet): active
[2]; synthetic metabolite, mice
  stereospecific potency in vivo: stereospecific potency in mice; also recorded: stereospecific potency in vivo
[2]
  occlusion time of thrombosis: significantly prolong the occlusion time of thrombosis
